# In PubChem BioAssay AID788 (SRMLSC, 2007):
# Active and inactive are the calls of the source. The rule behind the calls is not given here.
# Legend:
# [1] = test system: S. cerevisiae vps1Δ apl2Δ growth inhibition, dose response; test: growth inhibition of vps1Δ apl2Δ yeast, dose response, post-Golgi transport modulator project, S. cerevisiae, background strain comparison (AID 788)
# [2] = test system: S. cerevisiae wild-type background strain growth inhibition; test: as above; settings: S. cerevisiae vps1Δ apl2Δ growth inhibition, dose response; measured here: wild-type background strain growth
Structure (SMILES),IC50 [1],IC50 [2] [µM]
CC(C)OC(=O)CSc1nnc(-c2ccc(Cl)cc2)n1N,> 10 µM (inactive),> 10
COc1ccc(NC(=O)c2ccc(CN3CCN(c4ccccc4)CC3)cc2)cc1,> 10 µM (inactive),> 10
Cn1c(=O)cc(NCc2ccccc2)[nH]c1=O,> 10 µM (inactive),> 10
Cc1cccc2cc(C#N)c(NCCCn3ccnc3)nc12,> 10 µM (inactive),> 10
Cc1ccc(S(=O)(=O)N2CC3CC(C2)c2cccc(=O)n2C3)cc1 (stereo unspecified),> 10 µM (inactive),> 10
O=C(NCCc1ccccc1)C1CCN(S(=O)(=O)N2CCCC2)CC1,> 10 µM (inactive),> 10
Cc1cc(C)c2c(c1)/C(=C/C(=O)c1ccc(Br)s1)C(=O)N2,2.73 µM (inactive),1.42
O=C(COc1ccc(Cl)cc1Cl)NCCCN1CCOCC1,20.8 µM,> 10
C=CCc1ccccc1OCC(O)CN1CCN(Cc2ccc3c(c2)OCO3)CC1 (stereo unspecified),4.4 µM,> 10
CN1C(=O)/C(=C/c2cccn2-c2ccc3ccccc3c2)C(=O)NC1=S,10.4 µM (inactive),6.58
COc1cccc(-c2cc(C(=O)N3CCN(C(c4ccccc4)c4ccccc4)CC3)no2)c1,> 10 µM (inactive),> 10
CCCOc1ccccc1N/C(=N/c1nc(C)cc(C)n1)NC(=O)COc1ccc(OC)cc1,> 10 µM (inactive),> 10
O=C(OCn1ncc(Cl)c(Cl)c1=O)c1cccc(C(F)(F)F)c1,6 µM (inactive),3.51
Cc1c(Cc2ccccc2)c(=O)oc2c(C)c(OCc3nn[nH]n3)ccc12,> 10 µM (inactive),> 10
CC1CCCCC1NC(=O)CSc1nnnn1-c1ccccc1 (stereo unspecified),> 10 µM (inactive),> 10
CCN(CC)C(=O)C1CCN(Cc2ccc(Br)cc2)CC1,> 10 µM (inactive),> 10
Cc1ccn2cc(-c3nonc3C)cc2c1,> 10 µM (inactive),> 10

Structure (SMILES),IC50 [1],IC50 [2] [µM]
Cc1cc(C(C)(C)C)ccc1OCCN1CCCC1,17.1 µM,> 10
CCC(C)(C)NC(=O)CN(C(=O)CCC(=O)Nc1ccccn1)c1ccc(F)c(Cl)c1,> 10 µM (inactive),> 10
O=[N+]([O-])c1ccc(N/N=C/c2c[nH]c3ccccc23)c(S(=O)(=O)Nc2ccc(Cl)cc2)c1,2.15 µM,2.5
O=C1NC2(Nc3ccccc31)C(=O)Nc1ccccc12 (stereo unspecified),> 10 µM (inactive),> 10
OC(COCc1ccc(Cl)cc1)CN1CC=C(c2ccccc2)CC1 (stereo unspecified),4.71 µM,20.8
O=C(CC(=O)c1cc(Cl)ccc1O)c1ccccc1,9.8 µM,12.7
Cc1ccc(S(=O)(=O)NC(CC(C)C)C(=O)Oc2ccc3c4c(c(=O)oc3c2)CCC4)cc1 (stereo unspecified),> 10 µM (inactive),> 10
CC(C)c1ccc(C2C3CSCC=C3C(C#N)=C(N)C2(C#N)C#N)cc1 (stereo unspecified),2.08 µM (inactive),0.843
CCn1c(SCC(=O)N2CCCc3ccccc32)nnc1-c1ccco1,> 10 µM (inactive),> 10
CCCCC(c1nnnn1Cc1ccco1)N1CCN(c2nc3ccccc3s2)CC1 (stereo unspecified),19.7 µM (inactive),3.9
Cc1ccc(C)c(C(=O)NCc2ccncc2)c1,> 10 µM (inactive),> 10
O=C(COc1ccc(Br)cc1F)NC1CCN(Cc2ccccc2)CC1,3.05 µM,> 10
O=C(NCCSCc1ccc(Cl)cc1Cl)c1ccc(CN2CCOCC2)cc1,13.5 µM,> 10
CCOC(=O)Cn1cc(C=O)c2ccccc21,> 10 µM (inactive),> 10
Nc1cc(N)c(OCC(F)(F)F)cc1OCC(F)(F)F,> 10 µM (inactive),> 10
COc1ccc(NC(=S)NC(NC(=O)c2ccc(Cl)cc2Cl)C(Cl)(Cl)Cl)c([N+](=O)[O-])c1 (stereo unspecified),> 10 µM (inactive),> 10
